Measured values taken from patent US7312322B1, “Genetic sequences encoding steroid and juvenile hormone receptor polypeptides and insecticidal modalities therefor” (priority 1998, dated 2007).

Assays:
[1] = target: T1, linker and ligand-binding regions of the D. melanogaster EcR polypeptide and partner protein (USP polypeptide) (Drosophila melanogaster, UniProt P34021); assay: [3H]ponasterone A binding assay in cells infected by recombinant baculovirus (modified method of Yund et al); details: compared to the naturally-occurring ecdysone holoreceptor in L. cuprina embryos; no specific binding with control virus
T1 construct: made in house; host or cells: recombinant baculovirus in insect Sf21 and Sf9 cells
T1 sequence (P34021 419-654 limits assumed): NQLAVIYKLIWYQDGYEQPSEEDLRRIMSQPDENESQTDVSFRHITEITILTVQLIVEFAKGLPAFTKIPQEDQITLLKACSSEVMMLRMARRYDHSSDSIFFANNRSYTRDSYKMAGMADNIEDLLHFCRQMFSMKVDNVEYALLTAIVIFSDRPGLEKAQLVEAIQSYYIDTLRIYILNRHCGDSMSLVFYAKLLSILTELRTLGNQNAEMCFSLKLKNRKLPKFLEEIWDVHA
T1 sequence (P20153 239-498 partner limits assumed): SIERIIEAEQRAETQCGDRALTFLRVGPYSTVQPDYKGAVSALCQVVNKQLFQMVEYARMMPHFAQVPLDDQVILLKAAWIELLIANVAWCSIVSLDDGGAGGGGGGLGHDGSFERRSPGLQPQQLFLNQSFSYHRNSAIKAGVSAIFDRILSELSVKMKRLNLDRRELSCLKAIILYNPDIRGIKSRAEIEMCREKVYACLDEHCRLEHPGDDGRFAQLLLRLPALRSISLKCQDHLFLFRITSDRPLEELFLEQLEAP
From the text: The segment of pDmEcR.USP.DUAL which encodes the tagged linker and ligand-binding regions of the EcR polypeptide and partner protein (USP polypeptide) sequences, placed operably under the control of polyhedrin and p10 promoters, respectively, was recombined into a baculovirus genome, by employing the Tn7 transposition system (Luckow et al, (1993). The polypeptide products were then co-expressed in insect Sf21 and Sf9 cells, where they associated into a functional complex.
The correctly-folded and associated complex formed by the truncated Ecr polypeptide and truncated EcR partner protein (USP polypeptide), is used for X-ray and NMR structural analysis and for high-throughput screens.

[2] = target: T2, EcR polypeptide of the L. cuprina ecdysone receptor (Lucilia cuprina, UniProt O18531); assay: CHO cell co-transfection CAT reporter assay, pSGLcEcR; format: cell-based; details: CHO cells, 48 h after transfection, average of three experiments (FIG. 1)
T2 construct: Plasmid pF3 thus contains the complete open reading frame of the cDNA encoding the EcR polypeptide of the L. cuprina ecdysone receptor; expressed in transfected cells; host or cells: CHO cells
T2 sequence (O18531 1-757): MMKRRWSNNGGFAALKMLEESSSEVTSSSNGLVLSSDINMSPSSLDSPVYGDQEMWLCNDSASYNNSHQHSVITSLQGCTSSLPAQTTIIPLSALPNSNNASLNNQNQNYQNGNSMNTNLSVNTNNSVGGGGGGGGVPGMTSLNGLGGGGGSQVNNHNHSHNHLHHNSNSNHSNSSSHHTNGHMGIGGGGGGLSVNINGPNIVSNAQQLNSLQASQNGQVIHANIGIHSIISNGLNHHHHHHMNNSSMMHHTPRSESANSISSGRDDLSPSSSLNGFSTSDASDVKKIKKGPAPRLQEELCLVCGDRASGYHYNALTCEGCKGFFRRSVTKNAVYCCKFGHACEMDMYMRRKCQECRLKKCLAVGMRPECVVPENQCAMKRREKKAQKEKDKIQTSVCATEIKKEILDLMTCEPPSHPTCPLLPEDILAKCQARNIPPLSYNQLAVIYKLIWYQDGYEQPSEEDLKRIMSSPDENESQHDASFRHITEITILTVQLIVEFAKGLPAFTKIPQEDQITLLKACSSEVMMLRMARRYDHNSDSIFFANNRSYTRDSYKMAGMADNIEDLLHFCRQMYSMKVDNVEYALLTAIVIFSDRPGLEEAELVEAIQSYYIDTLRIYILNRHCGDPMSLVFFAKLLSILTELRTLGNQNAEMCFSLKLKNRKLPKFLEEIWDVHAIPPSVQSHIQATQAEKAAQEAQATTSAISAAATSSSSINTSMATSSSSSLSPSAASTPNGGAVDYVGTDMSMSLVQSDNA
Experimental: CHO cells were co-transfected with a mixture comprising the following DNAs, lysed and assayed for CAT and β-galactosidase enzyme activity, as described in the preceding Examples: • (1) one of the expression plasmids designated pSGDmEcR, or pSGLcEcR, or the parental expression plasmid pSG5 as a negative control, at a concentration of 1 μg/ml; and • (2) the CAT reporter plasmid p(EcRE)5CAT at a concentration of 1 μg/ml; and • (3) an independent LacZ reporter plasmid, pPGKLacZ, at a concentration of 1 μg/ml, included as a control to monitor transfection efficiency.
CAT reporter gene expression was induced with 10 μM or 50 μM Muristerone A. In control samples, cells received only the carrier ethanol in place of Muristerone A.
ELISA was used to quantify the synthesis of CAT and β-galactosidase enzymes, in extracts of cells forty eight hours after transfection. Account was taken of the variation between experiments, by normalizing the level of CAT enzyme to the level of β-galactosidase enzyme present in the same extract. Fold induction represents the normalized values for CAT gene expression in cells transfected with pSGDmEcR, pSGLcEcR or pSG5 in the presence of hormone divided by the normalized values for CAT gene expression in cells transfected with the same plasmid but in the absence of hormone. […]

[3] = target: T3, chimeric EcR polypeptide encoded by plasmid pSGLD (UniProt O18531+P34021, A395P/D402E/DEL360-378/E403D/F552Y/I397C/I665A/INS379CATEI/K578E/L663I/M356I/Q393S/Q448S/Q580E/R443K/S415P/S515N/S605P/T357Q/T417S/T456H/V458A/Y611F); assay: CHO cell co-transfection CAT reporter assay, chimeric EcR plasmid pSGLD; format: cell-based, D. melanogaster / L. cuprina; details: 10 μM and 50 μM Muristerone A, comparable to D. melanogaster base EcR polypeptide (FIG. 2)
T3 construct: expressed in transfected cells
Experimental: (§1) FIG. 2 is a copy of a graphical representation showing the activity of plasmid pSGLD and pSGDL, containing chimeric EcR polypeptide subunits of insect ecdysone receptors, produced as described in the Examples. Cotransfection assays were performed as described in the Examples using plasmids pSGLD and pSGDL and the CAT reporter plasmid p(EcRE)7-CAT (1 ug/ml) and an independent reporter, pPGKLacZ at 1 μg/ml each. CAT/b-Gal (%) refers to CAT reporter activity expressed as a percentage relative to β-galactosidase activity produced by the internal control reporter, pPGKLacZ.
(§2) In one exemplification of this embodiment, plasmids pSGLD and pSGDL are produced comprising coding regions derived from the EcR polypeptides of the D. melanogaster and L. cuprina ecdysone receptors. In plasmid pSGLD, the 5′-end of the open reading frame of the D. melanogaster sequence, encoding the N-terminal portion of the EcR polypeptide of the D. melanogaster ecdysone receptor to the end of the DNA-binding domain of said polypeptide, is fused to the 3′-end of the open reading frame of the L. cuprina sequence, encoding the C-terminal portion of the EcR polypeptide of the L. cuprina ecdysone receptor, from the D domain and hormone-binding domain to the carboxyl terminus. […]

[4] = target: T4, chimeric EcR polypeptide encoded by plasmid pSGDL (Drosophila melanogaster, UniProt P34021, A242T/A248V/C246S/D219E/E244D/N243S/R304H/S245A/S251I/S295N/V221A/V259L/Y240F); assay: CHO cell co-transfection CAT reporter assay, chimeric EcR plasmid pSGDL; format: cell-based, L. cuprina / D. melanogaster; details: 10 μM and 50 μM Muristerone A, comparable to D. melanogaster base EcR polypeptide (FIG. 2)
T4 construct: expressed in transfected cells
Experimental: as §1, §2

T3 sequence (P34021+O18531 fused with the stated changes): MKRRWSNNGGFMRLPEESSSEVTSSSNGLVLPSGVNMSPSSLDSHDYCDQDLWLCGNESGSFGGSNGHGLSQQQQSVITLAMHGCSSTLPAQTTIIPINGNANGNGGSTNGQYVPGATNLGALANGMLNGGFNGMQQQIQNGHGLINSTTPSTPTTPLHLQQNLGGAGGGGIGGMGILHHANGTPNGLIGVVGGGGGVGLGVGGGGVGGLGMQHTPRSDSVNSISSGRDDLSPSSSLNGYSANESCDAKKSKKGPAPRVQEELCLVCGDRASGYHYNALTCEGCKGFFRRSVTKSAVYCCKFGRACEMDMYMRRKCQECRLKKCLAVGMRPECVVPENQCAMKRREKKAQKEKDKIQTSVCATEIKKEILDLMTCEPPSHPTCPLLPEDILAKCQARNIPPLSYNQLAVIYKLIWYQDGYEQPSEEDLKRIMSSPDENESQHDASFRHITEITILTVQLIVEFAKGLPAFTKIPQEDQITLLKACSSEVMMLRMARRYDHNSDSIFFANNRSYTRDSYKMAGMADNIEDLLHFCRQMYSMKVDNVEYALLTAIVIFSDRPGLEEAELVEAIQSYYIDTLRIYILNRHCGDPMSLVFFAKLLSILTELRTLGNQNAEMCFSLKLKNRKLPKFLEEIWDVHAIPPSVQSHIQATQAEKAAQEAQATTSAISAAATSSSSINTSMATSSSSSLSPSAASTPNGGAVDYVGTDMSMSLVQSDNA
T4 sequence (P34021 other isoform, or with tags, fused parts or gaps with the stated changes): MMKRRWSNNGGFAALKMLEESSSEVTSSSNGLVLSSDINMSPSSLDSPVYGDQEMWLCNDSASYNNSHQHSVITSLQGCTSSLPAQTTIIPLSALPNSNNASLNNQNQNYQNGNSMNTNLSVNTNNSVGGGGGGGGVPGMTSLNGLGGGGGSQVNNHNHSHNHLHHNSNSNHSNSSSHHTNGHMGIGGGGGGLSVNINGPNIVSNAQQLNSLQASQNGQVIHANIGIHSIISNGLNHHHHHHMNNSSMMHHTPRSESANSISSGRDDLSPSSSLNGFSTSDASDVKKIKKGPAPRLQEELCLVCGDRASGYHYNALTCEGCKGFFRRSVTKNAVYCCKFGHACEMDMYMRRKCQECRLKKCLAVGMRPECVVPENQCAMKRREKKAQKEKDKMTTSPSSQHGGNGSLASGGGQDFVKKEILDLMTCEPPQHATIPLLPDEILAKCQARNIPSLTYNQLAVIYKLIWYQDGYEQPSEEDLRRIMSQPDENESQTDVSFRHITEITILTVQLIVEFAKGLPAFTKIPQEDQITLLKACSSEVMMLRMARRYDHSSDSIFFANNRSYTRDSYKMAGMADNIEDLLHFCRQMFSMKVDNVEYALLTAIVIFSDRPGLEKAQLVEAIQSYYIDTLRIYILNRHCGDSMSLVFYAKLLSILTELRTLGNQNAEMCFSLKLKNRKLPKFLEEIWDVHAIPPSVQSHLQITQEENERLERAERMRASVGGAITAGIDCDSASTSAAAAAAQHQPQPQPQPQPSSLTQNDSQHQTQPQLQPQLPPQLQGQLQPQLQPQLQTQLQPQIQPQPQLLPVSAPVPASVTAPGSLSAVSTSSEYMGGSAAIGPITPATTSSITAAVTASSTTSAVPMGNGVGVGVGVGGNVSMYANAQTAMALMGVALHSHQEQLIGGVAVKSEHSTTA

Molecule | binding of labelled ligand in cells infected by the recombinant baculovirus [1] | CAT induction (fold induction) ([2]; 50 μM steroid) | CAT induction (fold induction) ([2]; 10 μm steroid) [fold] | bioactivity in the CAT assay [3] | bioactivity in the CAT assay [4]
[^3H]ponasterone A | highly-significant increase in the binding | – | – | – | –
CC(C)CC[C@@H](O)[C@](C)(O)[C@H]1CC[C@@]2(O)C3=CC(=O)[C@]4(O)C[C@@H](O)[C@@H](O)C[C@]4(C)[C@H]3[C@H](O)C[C@]12C [Muristerone A] | – | about 30 fold | ~15 | Significant bioactivity | Significant bioactivity
